Data set [1] has as its system neuron apoptosis-operated rats, ipsilateral cerebral cortex. Kind of data set: Example 2 (timing of administration) histopathology: cerebral atrophy and degenerative neurons. Type of data set: in vivo, Sprague-Dawley (SD) rats. Conditions: for Cerebral atrophic % / Numbers of neurons: Degenerative cells: 1 mg/kg s.c. once a day for 14 days, 29 days after neuron apoptosis. As to the method:
Total one hundred healthy male Sprague-Dawley (SD) rats (6-wk old upon receipt; Japan; Body weight ranged in 170-190 g upon receipt) were used after acclimatization for 16 days. Animals were allocated four per polycarbonate cage in a temperature (20-25° C.) and humidity (50-55%) controlled room. Light:dark cycle was 12 hr:12 hr, and standard rodent chow (Samyang, Korea) and water were supplied free to access. All animals were treated in accordance with the Guidelines for Care and Use of Laboratory Animals of Daegu Haany University based on the Guide for the Care and Use of Laboratory Animals by Institute of Laboratory Animal Resources, Commission on Life Science, National Research Council, USA on 1996, Washington D.C. Experimental groups are as follows:
(§1) The mirodenafil (mirodenafil 2HCl; SK Chemical Life Science Business, KR) was used in this experiment. […] Mirodenafil was stored at 4° C. in a refrigerator to protect from light and humidity until used. Mirodenafil were directly dissolved in saline as 1 mg/ml concentrations, and subcutaneously administered in a volume of 1 ml/kg on the dorsal back skins from 24, 72 and 168 hrs after neuron apoptosis, once a day for 14 days, respectively. In saline and neuron apoptosis control rats, equal volumes of saline as vehicle were administered, instead of mirodenafil from 24 hrs after neuron apoptosis for 20 days, respectively.
The induction of neuron apoptosis was carried out by damaging the right hemisphere of the brain of animals. Specifically, animals were anesthetized with 2 or 3% isoflurane in the mixture of 70% N2O and 28.5% O2, and were maintained with 1 to 1.5% isoflurane in the mixture of 70% N2O and 28.5% O2. After that the temporalis muscle was bisected and reflected through an incision made midway between the eye and the eardrum canal. The proximal MCA was exposed through a subtemporal craniectomy by microdental drills without removing the zygomatic arch and without transecting the facial nerve. […] Mortality was less than 5%. For sham control, all procedures were performed in the same way, with the exception of the occlusion of the MCA.
At 29 days after neuron apoptosis, rats were sacrificed under deep anesthesia with 3% isoflurane inhalation. Brains were removed, washed in chilled phosphate buffered saline (PBS, pH7.4), and dissected into 6 coronal sections (2 mm thickness) ranging from 2 to 14 mm from the frontal brain pole on the rat brain stainless steel coronal matrix (Harvard, USA). Prepared last 6th cerebral parts were directly fixed in 10% neural buffered formalin. Then, embedded in paraffin, cross-sectioned, and stained with hematoxylin and eosin (H&E) for observing general histopathology of cerebral cortex. […] The histopathologist was blindes to group distribution when this analysis was made.
Histomorphometry: The atrophic % of ipsilateral cerebral cortex was calculated as following Equation 4 as compared with intact contralateral hemisphere in prepared peri-infarct/defect histological specimens. In addition, the numbers of degenerative neurons were also measured in the restricted view fields of cerebral cortex, mm2, respectively. Cerebral atrophy formation=(Contralateral cerebral cortex area−ipsilateral cerebral cortex area)/Contralateral cerebral cortex area×100(%) [EQUATION 4]
All data were expressed as mean±standard deviation (S.D.) of ten rats. Multiple comparison tests for different dose groups were conducted. Variance homogeneity was examined using the Levene test (Levene A, Clin Otalary, 1981; 6:145-51). […] Statistical analyses were conducted using SPSS for Windows (Release 14K, SPSS Inc., USA; Ludbrook, Clin Exp Pharmacol Physiol, 1997; 24:294-6). In addition, the percent changes as compared with neuron apoptosis control and mirodenafil treated rats were calculated to help the understanding of the efficacy of test substances as follow Equation 6 and 7. […]

Data set [2] deals with neuron apoptosis-operated rats. The data set is described as follows: Example 2 hindlimb placing test. It is filed as in vivo, Sprague-Dawley (SD) rats. How it is done: Sensorimotor function was evaluated by use of limb placing (de Ryck M et al., Stroke. 20:1383-90(1989)) and body swing (Borlongan and Sanberg, J Neurosci. 15:5372-8(1995)) tests. These tests were performed at 1 and 28 days after neuron apoptosis. The investigator performing the surgery and behavioral assessments was blinded to treatment assignment.
Limb placing test: Forelimb and hindlimb placement were assessed independently. For the forelimb placing test, the rats were held by their torso with their forepaws hanging free and moved slowly toward the edge of a tabletop, stopping short of touching the vibrissae (for vision-induced placing), touching the vibrissae (for vibrissae-induced placing), making light contact with the front of the forepaw to the edge of the tabletop (for tactile-induced placing), and pressing the forepaws to the edge of the table with increased pressure (for proprioceptive-induced placing). Hindlimb placing was conducted in the same manner as above but with tactile and proprioceptive stimulation applied to the front/top of each hindlimb. Each limb for placing in response to visual, vibrissae, tactile, and proprioceptive stimulation are scored in the following manner: normal performance=0 points; performance with unilateral limb=1 point; performance with a delay (2 seconds) and/or incomplete=2 point; no performance=3 points. A total of 12 points in forelimb placing test and 6 points in hindlimb placing test means maximal neurological deficit, and 0 points means normal performance.
All data were expressed as mean±standard deviation (S.D.) of ten rats. Multiple comparison tests for different dose groups were conducted. Variance homogeneity was examined using the Levene test (Levene A, Clin Otalary, 1981; 6:145-51). […] In addition, the percent changes as compared with neuron apoptosis control and mirodenafil treated rats were calculated to help the understanding of the efficacy of test substances as follow Equation 6 and 7. […]

Data set [3] in a line: Dissolution of test material in saline. Type of data set: physicochemical. Conditions: mirodenafil 2HCl. How it is done: The mirodenafil (mirodenafil 2HCl; SK Chemical Life Science Business, KR) was used in this experiment. […] Mirodenafil was stored at 4° C. in a refrigerator to protect from light and humidity until used. Three different dosages, 0.5, 1 and 2 mg/kg of mirodenafil were directly dissolved in saline and subcutaneously administered in a volume of 1 ml/kg on the dorsal back skins, once a day for 28 days from 24 hrs after stabilization periods from operation. In saline and neuron apoptosis control rats, equal volumes of saline as vehicle were administered, instead of mirodenafil, respectively.
as §1

The mark [4] stands for this setting: 1 mg/kg from 24 hrs after surgery.
Where [5] appears, read: 1 mg/kg from 72 hrs after surgery.
[6] abbreviates: 1 mg/kg from 168 hrs after surgery.

Experimental findings from patent US10064865B2, “Composition comprising phosphodiesterase type 5 inhibitor for inhibiting apoptosis of nerve cells” (ARIBIO INC., priority 2012, dated 2018) are described below.

`CCCOc1ccc(S(=O)(=O)N2CCN(CCO)CC2)cc1-c1nc2c(CCC)cn(CC)c2c(=O)[nH]1` [Mirodenafil, mirodenafil]: the “ipsilateral cerebral atrophic % at 29 days, change as compared with neuron apoptosis control” value in data set [1] (setting [4]) was −60.71%; in data set [1] (setting [5]) it was −26.37%; in data set [1] (setting [6]), −12.31%. Besides, the “numbers of degenerative neurons at sacrifice, change as compared with neuron apoptosis control” value in data set [1] (setting [4]) is −70.64%; in data set [1] (setting [5]), −45.90%; in data set [1] (setting [6]), −15.40%. The Cerebral atrophic % is 21.90 ± 3.13^ab % in data set [1] (start 24 hrs after operation), 41.03 ± 5.05^ab % in data set [1] (start 72 hrs after operation) and 48.87 ± 3.25^ac % in data set [1] (start 168 hrs after operation). Moreover, the entries for the “Numbers of neurons: Degenerative cells” value in data set [1] (start 24 hrs after operation), in data set [1] (start 72 hrs after operation) and in data set [1] (start 168 hrs after operation) were 22.80 ± 3.69^ab cells/mm^2 of cerebral cortex, 42.01 ± 6.14^ab cells/mm^2 of cerebral cortex and 65.70 ± 7.64^ac cells/mm^2 of cerebral cortex, respectively. Also, the “hindlimb placing test scores at 28 days, change as compared with neuron apoptosis control” value in data set [2] (setting [4]) is given as −65.22%; in data set [2] (setting [5]) it was −39.13%; in data set [2] (setting [6]) it was −17.39%. Moreover, in data set [3], the solubility in saline result is recorded as “well dissolved in saline”.
